Among the data in patent US20250114374A1, “BCL-2 INHIBITORS” (Newave Pharmaceutical Inc., priority 2021, published 2025) are IC50 values, retold here.

Usually IC50 stands for the concentration needed to halve the response being measured.

In this assay the test system is RS4; 11 with G101V mutation. As to the kind of experiment: In vitro anti-proliferation assay (ATPlite luminescence) in BCL-2-dependent ALL cell line RS4;11 with G101V mutation. The assay is classed as cell-based. Conditions: cellular anti-proliferative IC50, about 72 hours, medium with 10% FBS, ATPlite; read-out: RS411-G101V IC50. A digest of the protocol: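 RS4;11 G101V cells at about 1×10^4 per well were exposed to a range of compound concentrations for about 72 h in medium with 10% FBS. Cellular ATP was measured by ATPlite luminescence after lysis, and IC50 was derived from the dose-response.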
In general terms: In ATP-based viability assays light output follows the ATP content of the culture.

Consider `CC(C)Oc1ccccc1[C@H]1CN(CC2CCOCC2)CCN1C1CC2(CCN(c3ccc(C(=O)NS(=O)(=O)c4ccc(NCC5CCC(C)(O)CC5)c([N+](=O)[O-])c4)c(N4c5cc6cc[nH]c6nc5O[C@H]5COCC[C@@H]54)c3)CC2)C1` (stereo partly drawn) [Example 159, 2-[(3R,8S)-2,5-dioxa-9,15,17-triazatetracyclo[8.7.0.0^{3,8}.0^{12,16}]heptadeca-1(10),11,13,16-tetraen-9-yl]-4-{2-[(2S)-2-(2-isopropoxyphenyl)-4-(oxan-4-ylmethyl)piperazin-1-yl]-7-azaspiro[3.5]nonan-7-yl}-N-[3-nitro-4-({[(1r,4r)-4-hydroxy-4-methylcyclohexyl]methyl}amino)benzenesulfonyl]benzamide], for which the IC50 turned out to be 7.5 nM.
Consider `CC(C)Oc1ccccc1[C@H]1CN(C2CCC(N3CCOC[C@H]3C)CC2)CCN1C1CC2(CCN(c3ccc(C(=O)NS(=O)(=O)c4ccc(NCC5CCC(C)(O)CC5)c([N+](=O)[O-])c4)c(N4c5cc6cc[nH]c6nc5O[C@H]5COCC[C@@H]54)c3)CC2)C1` (stereo partly drawn) [Example 160, N-((4-((((1r,4r)-4-hydroxy-4-methylcyclohexyl)methyl)amino)-3-nitrophenyl)sulfonyl)-4-(2-((S)-2-(2-isopropoxyphenyl)-4-((1S,4R)-4-((R)-3-methylmorpholino)cyclohexyl)piperazin-1-yl)-7-azaspiro[3.5]nonan-7-yl)-2-((5aS,9aR)-6,7,9,9a-tetrahydro-1H-pyrano[3,4-b]pyrrolo[3′,2′:5,6]pyrido[3,2-e][1,4]oxazin-5(5aH)-yl)benzamide], for which the IC50 stood at 22.8 nM.
The figure for `CC(C)Oc1ccccc1[C@H]1CN(C2CCC(N3CCOC[C@H]3C)CC2)CCN1C1CC2(CCN(c3ccc(C(=O)NS(=O)(=O)c4ccc(NCC5CCC(C)(O)CC5)c([N+](=O)[O-])c4)c(N4c5cc6cc[nH]c6nc5O[C@H]5COCC[C@@H]54)c3)CC2)C1` (stereo partly drawn) [Example 161, N-((4-((((1r,4r)-4-hydroxy-4-methylcyclohexyl)methyl)amino)-3-nitrophenyl)sulfonyl)-4-(2-((S)-2-(2-isopropoxyphenyl)-4-((1R,4S)-4-((R)-3-methylmorpholino)cyclohexyl)piperazin-1-yl)-7-azaspiro[3.5]nonan-7-yl)-2-((5aS,9aR)-6,7,9,9a-tetrahydro-1H-pyrano[3,4-b]pyrrolo[3′,2′:5,6]pyrido[3,2-e][1,4]oxazin-5(5aH)-yl)benzamide] is 18.1 nM; for `CC(C)Oc1ccccc1[C@H]1CN(C2CCN(C3CCOCC3)CC2)CCN1C1CC2(CCN(c3ccc(C(=O)NS(=O)(=O)c4ccc(NC[C@H]5CC[C@](C)(O)CC5)c([N+](=O)[O-])c4)c(N4c5cc6cc[nH]c6nc5O[C@H]5COCC[C@@H]54)c3)CC2)C1` [Example 162, N-((4-((((1r,4r)-4-hydroxy-4-methylcyclohexyl)methyl)amino)-3-nitrophenyl)sulfonyl)-4-(2-((S)-2-(2-isopropoxyphenyl)-4-(1-(tetrahydro-2H-pyran-4-yl)piperidin-4-yl)piperazin-1-yl)-7-azaspiro[3.5]nonan-7-yl)-2-((5aS,9aR)-6,7,9,9a-tetrahydro-1H-pyrano[3,4-b]pyrrolo[3′,2′:5,6]pyrido[3,2-e][1,4]oxazin-5(5aH)-yl)benzamide] it is 49.9 nM.
As for `COc1ncc(CN2CCN(C3CC4(CCN(c5ccc(C(=O)NS(=O)(=O)c6ccc(NCC7CCC(C)(O)CC7)c([N+](=O)[O-])c6)c(N6c7cc8cc[nH]c8nc7O[C@H]7COCC[C@@H]76)c5)CC4)C3)[C@@H](c3ccccc3OC(C)C)C2)cc1N1CCOCC1` (stereo partly drawn) [Example 163, N-((4-((((1r,4r)-4-hydroxy-4-methylcyclohexyl)methyl)amino)-3-nitrophenyl)sulfonyl)-4-(2-((S)-2-(2-isopropoxyphenyl)-4-((6-methoxy-5-morpholinopyridin-3-yl)methyl)piperazin-1-yl)-7-azaspiro[3.5]nonan-7-yl)-2-((5aS,9aR)-6,7,9,9a-tetrahydro-1H-pyrano[3,4-b]pyrrolo[3′,2′:5,6]pyrido[3,2-e][1,4]oxazin-5(5aH)-yl)benzamide], the figure is 27.9 nM.
As for `Cc1ccccc1[C@@H]1CN(Cc2ccc(F)c(F)c2)CCN1C1CC2(CCN(c3ccc(C(=O)NS(=O)(=O)c4ccc(NCC5CCOCC5)c([N+](=O)[O-])c4)c(N4c5cc6cc[nH]c6nc5O[C@H]5COCC[C@@H]54)c3)CC2)C1` [Example 164, 4-{2-[(2R)-4-[(3,4-difluorophenyl)methyl]-2-(2-methylphenyl)piperazin-1-yl]-7-azaspiro[3.5]nonan-7-yl}-2-[(3R,8S)-2,5-dioxa-9,15,17-triazatetracyclo[8.7.0.0^{3,8}.0^{12,16}]heptadeca-1(10),11,13,16-tetraen-9-yl]-N-{3-nitro-4-[(oxan-4-ylmethyl)amino]benzenesulfonyl}benzamide], the figure is 48.5 nM; as for `CC(C)c1ccccc1[C@@H]1CN(Cc2ccc(F)c(F)c2)CCN1C1CC2(CCN(c3ccc(C(=O)NS(=O)(=O)c4ccc(NCC5CCOCC5)c([N+](=O)[O-])c4)c(N4c5cc6cc[nH]c6nc5O[C@H]5COCC[C@@H]54)c3)CC2)C1` [Example 165, 4-{2-[(2R)-4-[(3,4-difluorophenyl)methyl]-2-(2-isopropylphenyl)piperazin-1-yl]-7-azaspiro[3.5]nonan-7-yl}-2-[(3R,8S)-2,5-dioxa-9,15,17-triazatetracyclo[8.7.0.0^{3,8}.0^{12,16}]heptadeca-1(10),11,13,16-tetraen-9-yl]-N-{3-nitro-4-[(oxan-4-ylmethyl)amino]benzenesulfonyl}benzamide], 10.9 nM; as for `CC(C)c1ccccc1[C@H]1CN(Cc2ccc(F)c(F)c2)CCN1C1CC2(CCN(c3ccc(C(=O)NS(=O)(=O)c4ccc(NCC5CCOCC5)c([N+](=O)[O-])c4)c(N4c5cc6cc[nH]c6nc5O[C@H]5COCC[C@@H]54)c3)CC2)C1` [Example 166, 4-{2-[(2S)-4-[(3,4-difluorophenyl)methyl]-2-(2-isopropylphenyl)piperazin-1-yl]-7-azaspiro[3.5]nonan-7-yl}-2-[(3R,8S)-2,5-dioxa-9,15,17-triazatetracyclo[8.7.0.0^{3,8}.0^{12,16}]heptadeca-1(10),11,13,16-tetraen-9-yl]-N-{3-nitro-4-[(oxan-4-ylmethyl)amino]benzenesulfonyl}benzamide], 585 nM.
Regarding `Cc1ccccc1[C@@H]1CN(Cc2ccc(F)c(F)c2)CCN1C1CC2(CCN(c3ccc(C(=O)NS(=O)(=O)c4cc5c(c([N+](=O)[O-])c4)N[C@@H](C4CCOCC4)CO5)c(N4c5cc6cc[nH]c6nc5O[C@H]5COCC[C@@H]54)c3)CC2)C1` [Example 167, 4-{2-[(2R)-4-[(3,4-difluorophenyl)methyl]-2-(2-methylphenyl)piperazin-1-yl]-7-azaspiro[3.5]nonan-7-yl}-2-[(3R,8S)-2,5-dioxa-9,15,17-triazatetracyclo[8.7.0.0^{3,8}.0^{12,16}]heptadeca-1(10),11,13,16-tetraen-9-yl]-N-[(3S)-5-nitro-3-(oxan-4-yl)-3,4-dihydro-2H-1,4-benzoxazin-7-ylsulfonyl]benzamide], the IC50 was found to be 75.8 nM.
`Cc1ccccc1[C@@H]1CN(Cc2ccc(F)c(F)c2)CCN1C1CC2(CCN(c3ccc(C(=O)NS(=O)(=O)c4cc5c(c([N+](=O)[O-])c4)N[C@H](C4CCOCC4)CO5)c(N4c5cc6cc[nH]c6nc5O[C@H]5COCC[C@@H]54)c3)CC2)C1` [Example 168, 4-{2-[(2R)-4-[(3,4-difluorophenyl)methyl]-2-(2-methylphenyl)piperazin-1-yl]-7-azaspiro[3.5]nonan-7-yl}-2-[(3R,8S)-2,5-dioxa-9,15,17-triazatetracyclo[8.7.0.0^{3,8}.0^{12,16}]heptadeca-1(10),11,13,16-tetraen-9-yl]-N-[(3R)-5-nitro-3-(oxan-4-yl)-3,4-dihydro-2H-1,4-benzoxazin-7-ylsulfonyl]benzamide]: the IC50 is 64.3 nM.
As for `COc1cc(CN2CCN(C3CC4(CCN(c5ccc(C(=O)NS(=O)(=O)c6cc7c(c([N+](=O)[O-])c6)N[C@H](C6CCOCC6)CO7)c(N6c7cc8cc[nH]c8nc7O[C@H]7COCC[C@@H]76)c5)CC4)C3)[C@H](c3ccccc3OC(C)C)C2)cnc1N1CCOC[C@@H]1C` [Example 169, 2-[(3R,8S)-2,5-dioxa-9,15,17-triazatetracyclo[8.7.0.0^{3,8}.0^{12,16}]heptadeca-1(10),11,13,16-tetraen-9-yl]-4-{2-[(2R)-2-(2-isopropoxyphenyl)-4-({5-methoxy-6-[(3S)-3-methylmorpholin-4-yl]pyridin-3-yl}methyl)piperazin-1-yl]-7-azaspiro[3.5]nonan-7-yl}-N-[(3R)-5-nitro-3-(oxan-4-yl)-3,4-dihydro-2H-1,4-benzoxazin-7-ylsulfonyl]benzamide], the figure is 3.82 nM; as for `Cc1ccccc1[C@@H]1CN([C@H]2CCOc3cc(F)c(F)cc32)CCN1C1CC2(CCN(c3ccc(C(=O)NS(=O)(=O)c4cc5c(c([N+](=O)[O-])c4)N[C@H](C4CCOCC4)CO5)c(N4c5cc6cc[nH]c6nc5O[C@H]5COCC[C@@H]54)c3)CC2)C1` [Example 170, 4-{2-[(2R)-4-[(4S)-6,7-difluoro-3,4-dihydro-2H-1-benzopyran-4-yl]-2-(2-methylphenyl)piperazin-1-yl]-7-azaspiro[3.5]nonan-7-yl}-2-[(3R,8S)-2,5-dioxa-9,15,17-triazatetracyclo[8.7.0.0^{3,8}.0^{12,16}]heptadeca-1(10),11,13,16-tetraen-9-yl]-N-[(3R)-5-nitro-3-(oxan-4-yl)-3,4-dihydro-2H-1,4-benzoxazin-7-ylsulfonyl]benzamide], 205 nM; as for `Cc1ccccc1[C@@H]1CN([C@@H]2CCOc3cc(F)c(F)cc32)CCN1C1CC2(CCN(c3ccc(C(=O)NS(=O)(=O)c4cc5c(c([N+](=O)[O-])c4)N[C@H](C4CCOCC4)CO5)c(N4c5cc6cc[nH]c6nc5O[C@H]5COCC[C@@H]54)c3)CC2)C1` [Example 171, 4-{2-[(2R)-4-[(4R)-6,7-difluoro-3,4-dihydro-2H-1-benzopyran-4-yl]-2-(2-methylphenyl)piperazin-1-yl]-7-azaspiro[3.5]nonan-7-yl}-2-[(3R,8S)-2,5-dioxa-9,15,17-triazatetracyclo[8.7.0.0^{3,8}.0^{12,16}]heptadeca-1(10),11,13,16-tetraen-9-yl]-N-[(3R)-5-nitro-3-(oxan-4-yl)-3,4-dihydro-2H-1,4-benzoxazin-7-ylsulfonyl]benzamide], 220 nM.
